In brackets after ≈: the same amount, converted by molar mass.
What was measured:
Apis mellifera = details: acute, mortality
Mus musculus = details: chronic; duration: 18 months; oral; diet; neurology
Anas platyrhynchos = details: short-term; mortality
Lepomis macrochirus = details: acute; duration: 96 hours; mortality

SMILES: CCCCC(CC)COC(=O)[C@@H](C)Oc1ccc(Cl)cc1Cl (stereo not given in full) [Dichlorprop-P-2-ethylhexyl]
- LD50 (Apis mellifera; dermal): > 180 µg/piece
- LD50 (Apis mellifera; oral, unspecified): > 178 µg/piece
- LD50 (Rattus norvegicus; acute, mortality): 824 mg/kg-day
- NOAEL (Rattus norvegicus; developmental, development): 80 mg/kg-day
- NOAEL (Rattus norvegicus; reproduction developmental, body weight): 20 mg/kg-day
- LD50 (Colinus virginianus; acute, oral, mortality): 1010 mg/kg-day
- NOEL (Colinus virginianus; reproduction developmental): 101 mg/kg-day
- NOAEL (Mus musculus): 6 mg/kg-day
- LD50 (Anas platyrhynchos): > 928 mg/kg-day
- LC50 (Lepomis macrochirus): 7.9 µg/mL (≈ 22.7 µM)
